Assay results from US10864216B2, “Phenothiazine diaminium salts and their use” (WisTa Laboratories Ltd., priority 2011, dated 2020).
Marks after values point to notes of the source that are not given here.

Experiments:
[1] = tested on: rat, stomach (non glandular); experiment: Gastric irritation: 28-day rat study with LMT.2MsOH; type: in vivo; parameters: key to Gastritis, grade 2 (slight): incidence / Gastritis, grade 3 (moderate): incidence / Gastritis, total incidence / Inflammatory cell infiltration, grade 1 (minimal): incidence / Inflammatory cell infiltration, grade 2 (slight): incidence / Gastritis, grade 1 (minimal): incidence: “—” = finding not present; 1 = minimal; 2 = slight; 3 = moderate; 4 = moderately severe; 5 = severe; conditions: for Gastritis, total incidence / Gastritis, grade 1 (minimal): incidence / Gastritis, grade 2 (slight): incidence / Gastritis, grade 3 (moderate): incidence / Inflammatory cell infiltration, grade 1 (minimal): incidence / Inflammatory cell infiltration, grade 2 (slight): incidence: 90 mg/kg/day, 28-day, 10 examined; for Gastritis, total incidence: number of animals; for Gastritis, grade 1 (minimal): incidence / Gastritis, grade 2 (slight): incidence / Gastritis, grade 3 (moderate): incidence / Inflammatory cell infiltration, grade 1 (minimal): incidence / Inflammatory cell infiltration, grade 2 (slight): incidence: terminal kill, cell = number of animals
Excerpt: Study (28-day rat study with LMT.2MsOH): Incidence and severity of selected microscopic findings in sternum, liver, spleen and stomach from terminal animals

female Wistar rats = experiment: 14 day oral administration to rats: toxicology and neutrophil response; type: in vivo; conditions: for Neutrophils (total neutrophils as percentage of total white cells) / Dose-related deaths / Early neutrophils (frequency of presence of immature neutrophils per animal group): 14 days oral; for Neutrophils (total neutrophils as percentage of total white cells): 95 mg MT/kg/day Days 1-10, 60 mg MT/kg/day Days 11-14; for Dose-related deaths: animal numbers per group of 8 rats; for Early neutrophils (frequency of presence of immature neutrophils per animal group): animals per group of 8
Excerpt: Table: Neutrophil response in rats following 14 day oral administration of different salt forms of LMT.

[2] = biological target: full-length human tau protein (htau40) and truncated tau (295-390, dGA) in 3T6 mouse cells (Homo sapiens, UniProt P10636); experiment: Cell-based tau aggregation assay
[3] = Solubility of LMT salts in aqueous HCl solutions at 37° C.; type: physicochemical; conditions: lower limit complete dissolution, upper limit saturation
Method: Two aqueous solutions (pH 2.00 and 3.01 at 21.4° C.) were prepared by carefully adding HCl (5 M) to deionised water. In each experiment a 5 ml aliquot of one of the aforementioned solutions was heated to 37° C. […] This step was repeated until no further dissolution took place.

minipigs = experiment: Studies on the hemopoietic system (methemoglobinemia), minipig; type: in vivo
Method: Studies on the hemopoietic system were performed in rat, monkey and minipig.

[4] = pH dependence of solubility of LMT.2MsOH in buffered aqueous solutions at 25° C.; type: physicochemical; conditions: aqueous buffer, thermodynamic from solid
Method: In related experiments three buffered stock solutions were prepared (pH 2, pH 3, and pH 7) as follows: A solution of (0.2 M) potassium chloride (KCl) (0.745 g in 50 mL of deionised water) was initially prepared. From this solution 50 mL was taken and diluted with approximately 80 mL of deionised water. A (0.2 M) hydrochloric acid (HCl) solution was then used to adjust the pH to 2, before further dilution with deionised water to make up to 200 mL. A final pH of 2.00 at 21.6° C. was recorded. A solution of (0.1 M) potassium hydrogen phthalate (2.042 g in 100 mL of deionised water) was initially prepared. From this solution 100 mL was taken and diluted with approximately 50 mL of deionised water. A 0.2 M HCl solution was then used to adjust the pH to 3, before further dilution with deionised water to make up to 200 mL. A final pH of 2.99 at 21.7° C. was recorded. A solution of (0.1 M) potassium phosphate monobasic (KH2PO4) (1.370 g in 100 mL of deionised water) was initially prepared. From this solution 100 mL was taken and diluted with approximately 80 mL of deionised water. A 0.5 M sodium hydroxide (NaOH) solution was then used to adjust the pH to 7, before further dilution with deionised water to make up to 200 mL. A final pH of 7.07 at 22° C. was recorded. […] This vial was placed into a water bath set at 25° C. To the solution was added LMT.2MsOH in 1-1.5 g portions. After each addition, a 10 minutes stir time was allowed to ensure maximum opportunity for dissolution. The homogeneity of the mixture was judged by eye. If solid was still present, after the stir time, as judged by visual inspection, the saturation point was judged to have been reached. The viscosity of the resulting mixtures precluded adequate isolation of the excess solid, therefore it was not possible to determine exact solubility values.

[5] = biological target: T1, truncated tau (amino acids 297-391) in solution binding to solid-phase bound truncated tau (residues 297-390) (Homo sapiens, UniProt P10636); experiment: Solid phase assay for tau aggregation (tau-tau binding, B50); conditions: concentration at which tau-tau binding is decreased by 50%; mean ± SE
T1 construct: made in house
T1 sequence (P10636 614-708): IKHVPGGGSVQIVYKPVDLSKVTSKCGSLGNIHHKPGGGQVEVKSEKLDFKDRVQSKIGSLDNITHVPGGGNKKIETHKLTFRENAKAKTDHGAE
T1 sequence (P10636 614-707): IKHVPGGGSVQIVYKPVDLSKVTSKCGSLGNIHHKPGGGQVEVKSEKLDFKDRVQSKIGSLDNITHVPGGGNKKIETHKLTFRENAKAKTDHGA
Excerpt: The tau-tau aggregation assay uses purified recombinant tau fragments in a solid-phase immunoassay. Methods are described in detail in e.g. WO 96/30766. Briefly, the assay measures the binding of truncated tau (amino acids 297-391) in solution to solid-phase bound truncated tau (residues 297-390). Binding of the former is detected with the antibody mAb 423, which specifically recognises peptides containing a C-terminal Glu-391 residue. The Tau complex formed in vitro is similar to the aggregated complex that forms in Alzheimer's disease as a consequence of the stability of the pathological Tau-Tau binding interaction through a 94/95-amino acid repeat domain (residues 297-390), found in the proteolytically stable core of the paired helical filament.
The B50 value (expressed as mean±SE) is determined as the concentration of compound at which tau-tau binding is decreased by 50%.

[6] = Dynamic vapour sorption (DVS); type: physicochemical; conditions: crystalline, 25° C., relative humidity range between 0% and 70%
Method: FIGS. 15a and 15b show the dynamic vapour sorption (DVS) curve for crystalline LMT.2MsOH measured at 25° C. with 5%/h scanning rate. The horizontal dashed lines indicate steps of water uptake of one equivalent. […] Above this r.h., the water uptake increased rapidly, and the sample ultimately deliquesced. Upon drying, the water content decreased again to approximately 4 equiv. at 50% r.h.
Projekt Messtechnik SPS 11-100n water vapor sorption analyzer. The samples were placed in aluminum crucibles on top of a microbalance and were equilibrated at 25° C. and 50% r.h. before starting a pre-defined humidity program at 25° C. (50-0-95-50% r.h., scanning with Δ r.h.=5% h^−1 and with ‘isohumid’ equilibration periods at the extreme values).

[7] = Pharmacokinetics: plasma concentration of the MT moiety in pig; type: in vivo; conditions: oral doses 2 and 15 mg/kg
rats = experiment: Studies on the hemopoietic system (methemoglobinemia), rat; type: in vivo
[8] = tested on: rat, stomach (non glandular); experiment: Gastric irritation: 28-day rat study with MTC or LMT.2HBr; type: in vivo; parameters: key to Gastritis, grade 3 (moderate): incidence / Inflammatory cell infiltration, grade 1 (minimal): incidence / Gastritis, grade 1 (minimal): incidence / Gastritis, grade 2 (slight): incidence / Gastritis, grade 3: incidence predicted with 10 per group / Gastritis, grade 1: incidence predicted with 10 per group / Gastritis, grade 2: incidence predicted with 10 per group: “—” = finding not present; 1 = minimal; 2 = slight; 3 = moderate; 4 = moderately severe; 5 = severe; conditions: 90 mg/kg/day; for Gastritis, total incidence predicted with 10 per group: number of animals of 10; for Gastritis, grade 1: incidence predicted with 10 per group / Gastritis, grade 2: incidence predicted with 10 per group / Gastritis, grade 3: incidence predicted with 10 per group: scaled from 5 to 10 examined
rat = experiment: 6-month study of LMT.2HBr in the rat; type: in vivo; conditions: high dose 45 mg MT/kg/day
Excerpt: The decreased neutrophils or neutropaenia observed after LMT.2HBr although reversible would make patients more susceptible to bacterial infections as their primary role is in destruction of bacteria.

[9] = aqueous HCl solution pH 2.00 (21.4° C.)
[10] = female rats, 28-day, terminal kill, 5 examined, cell = number of animals
[11] = female rats, cell = number of animals
[12] = male rats, 28-day, terminal kill, 5 examined, cell = number of animals
[13] = male rats, cell = number of animals

CN(C)c1ccc2c(c1)Sc1cc(N(C)C)ccc1N2.CS(=O)(=O)O.CS(=O)(=O)O [LMT.2MsOH, N,N,N′,N′-tetramethyl-10H-phenothiazine-3,7-diaminium bis(methanesulfonate)]
Gastric irritation compared with LMT.2HBr ([1]; 28-day rat studies): less gastric irritation
Gastritis, total incidence ([1]; female rats): 3
Gastritis, grade 1 (minimal): incidence ([1]; female rats): —
Gastritis, grade 2 (slight): incidence ([1]; female rats): 2
Gastritis, grade 3 (moderate): incidence ([1]; female rats): 1
Inflammatory cell infiltration, grade 1 (minimal): incidence ([1]; female rats): 4
Inflammatory cell infiltration, grade 2 (slight): incidence ([1]; female rats): 1
Gastritis, total incidence ([1]; male rats): 2
Gastritis, grade 1 (minimal): incidence ([1]; male rats): —
Gastritis, grade 2 (slight): incidence ([1]; male rats): 2
Gastritis, grade 3 (moderate): incidence ([1]; male rats): —
Inflammatory cell infiltration, grade 1 (minimal): incidence ([1]; male rats): 4
Inflammatory cell infiltration, grade 2 (slight): incidence ([1]; male rats): —
Neutropaenia in prepared blood smears (mature neutrophils) (female Wistar rats; 14 days): no decrease
Neutrophils (total neutrophils as percentage of total white cells) (female Wistar rats): 18.30%
Dose-related deaths (female Wistar rats): 0/8
Early neutrophils (frequency of presence of immature neutrophils per animal group) (female Wistar rats): 1/8
EC50 [2]: 0.19 ± 0.04 µM
therapeutic index greater compared with MTC [2]: 63%
THx, therapeutic index (THx = LD50/EC50) [2]: 179
Solubility g/5 ml (37° C.) [3, 9]: 8.825-9.943 g/5 ml
Lowest dose at which methemoglobinemia was observed (minipigs): 10 mg MT/kg/day
Methemoglobinemia (minipigs; 3 mg MT/kg/day, first 28-days of dosing in the 9-month study): no indications of methemoglobinemia
solubility at 10 min ([4]; buffered aqueous solution pH 2.00, 25° C.): 1600 to 1770 mg/mL
solubility at 10 min ([4]; buffered aqueous solution pH 2.99, 25° C.): 1980 to 2090 mg/mL
solubility at 10 min ([4]; buffered aqueous solution pH 7.07, 25° C.): 2030 to 2110 mg/mL
IC50 [5]: 238 ± 74.2 µM
Weight change in dynamic vapour sorption [6]: less than 0.5%
Cmax of MT moiety in plasma, fold greater than that for LMT.2HCl or LMT.2HBr [7]: more than 2 fold
Tmax ([7]; plasma): 1 h
Lowest dose at which methemoglobinemia was observed (rats): 30 mg MT/kg/day

CN(C)c1ccc2c(c1)Sc1cc(N(C)C)ccc1N2 [LMT.2HBr, N,N,N′,N′-tetramethyl-10H-phenothiazine-3,7-diaminium di(bromide)]
Neutropaenia in prepared blood smears (mature neutrophils) (female Wistar rats; 14 days): marked depletion of mature neutrophils
Numbers of neutrophilic granulocytes in the bone marrow (female Wistar rats; 14 days): considerably greater
Treatment-related deaths (female Wistar rats; 14 days): Treatment-related deaths occurred
Neutrophils (total neutrophils as percentage of total white cells) (female Wistar rats): 3.00%*
Dose-related deaths (female Wistar rats): 2/8
Early neutrophils (frequency of presence of immature neutrophils per animal group) (female Wistar rats): 8/8
THx, therapeutic index (THx = LD50/EC50) ([2]; listed as LMT•2HBr): 92
EC50 (μM) ([2]; listed as LMT•2HBr): 0.66 ± 0.15 (n = 8) μM
Solubility g/5 ml (37° C.) [3, 9]: 4.822-5.096 g/5 ml
Solubility g/5 ml (37° C.) ([3]; aqueous HCl solution pH 3.01 (21.4° C.)): 4.726-5.236 g/5 ml
Lowest dose at which methemoglobinemia was observed (minipigs): 10 mg MT/kg/day
IC50 [5]: 472 ± 27.6 µM
Gastritis, grade 1 (minimal): incidence [8, 10]: —
Gastritis, grade 2 (slight): incidence [8, 10]: 1
Gastritis, grade 3 (moderate): incidence [8, 10]: 1
Inflammatory cell infiltration, grade 1 (minimal): incidence [8, 10]: —
Gastritis, total incidence predicted with 10 per group ([8]; female rats): 4
Gastritis, grade 1: incidence predicted with 10 per group [8, 11]: —
Gastritis, grade 2: incidence predicted with 10 per group [8, 11]: 2
Gastritis, grade 3: incidence predicted with 10 per group [8, 11]: 2
Gastritis, grade 1 (minimal): incidence [8, 12]: 1
Gastritis, grade 2 (slight): incidence [8, 12]: —
Gastritis, grade 3 (moderate): incidence [8, 12]: 1
Gastritis, total incidence predicted with 10 per group ([8]; male rats): 4
Gastritis, grade 1: incidence predicted with 10 per group [8, 13]: 2
Gastritis, grade 2: incidence predicted with 10 per group [8, 13]: —
Gastritis, grade 3: incidence predicted with 10 per group [8, 13]: 2
Mature neutrophils and granulocytes in the bone marrow (rat): Decreased numbers of mature neutrophils and granulocytes
Lowest dose at which methemoglobinemia was observed (rats): 15 mg MT/kg/day
